This is an account of results in PMC10214526, “Semisynthetic LC3 Probes for Autophagy Pathways Reveal a Noncanonical LC3 Interacting Region Motif Crucial for the Enzymatic Activity of Human ATG3” (ACS Central Science, 2023).

Assay [1] deals with ATG3. Briefly: Reaction (cross-linking) of Ubl activity-based probes with recombinant ATG3 and variants. Conditions: probe 15 μM; ATG3 wt, C264A and ΔLIR 5 μM; SDS-PAGE (Figure S9). The class given is biochemical, human.
The test system of assay [2] is ATG3. The description is as above. The assay is classed as biochemical, human. Conditions: for Reaction with ATG3 C0: ATG3 C0 (no cysteines) 15 μM; for Reaction with ATG3 C1: ATG3 C1 (only active-site C264) 15 μM; for Reaction with ATG3 ΔLIR: ATG3 C1 ΔLIR (Δ95–111) 15 μM. As to the method: Figure 1 Modification of ATG3 with GABARAP ABPs depends on LIR^ATG3. a. Characterization of GABARAP activity-based probes, 1 and 2, obtained by hydrazide-acylation. Deconvoluted mass-spectrum (ESI) of GABARAP(ΔG116)–NHNH α-chloroacetyl 1. Expected mass 13707 Da. Deconvoluted mass-spectrum (ESI) of GABARAP(ΔG116)–NHNH methyl-fumarate 2. Expected mass 13743 Da. b. […] The reaction was allowed to proceed for 1 h and was analyzed by SDS-PAGE and Coomassie Blue staining. c. ColabFold-predicted structure of the protein-complex of ATG3 and GABARAP. Side-chain atoms are shown for the predicted LIR motif in ATG3 (90–112). d. Reaction of 2 (15 μM) with ATG3 variants C1, C0, and ΔLIR (15 μM). ATG3 C1 contains only active-site cysteine C264. ATG3 C0 contains no cysteines. ATG3 ΔLIR lacks amino acids 95–111. Reaction was allowed to proceed for 1 h and was analyzed by SDS-PAGE and Coomassie Blue staining. Full-gel images for b and d are available in the Supplementary Information.
We were intrigued by the cross-linking efficiency of 2 with ATG3 and sought to investigate the origin of this efficiency by generating a C1 variant of ATG3 that only contains the catalytic cysteine 264 and a corresponding C0 variant containing no cysteines. […] In general, the affinity of E2s for their cognate Ubls are quite low, as the thioester transfer from the E1 to the E2 enzyme is facilitated by additional interactions from the UFD domain of the E1 enzyme.[23] […]
Upon completion the solution was dialyzed against 25 mM
HEPES, 200 mM NaCl pH 7.2 at 4 °C. Cleaved intein was removed using gravity Ni-NTA purification.
The flow-through was collected and combined with resin washes. The combined fractions were dialyzed and further purified using ion exchange.
3.3. Generation of GABARAP and LC3A hydrazides from SUMO-GABARAP/LC3A-Mxe GyrA-
SUMO-GABARAP/LC3A-Mxe GyrA-His6 fusion after Ni-NTA purification was dialyzed against intein cleavage buffer (25 mM HEPES, 500 mM NaCl, 1 mM EDTA pH 7.2 at 4 °C). After dialysis hydrazine monohydrate (75 mM) and MESNa (10 mM) was added and the pH adjusted to 7.8. The solution was allowed to stand at room temperature and monitored using LC-MS analysis. Upon completion the solution was dialyzed against 25 mM HEPES, 500 mM NaCl pH 7.2 at 4 °C. SENP1 (1 wt%) was added to cleave the SUMO-tag. The cleaved intein was removed using gravity Ni-NTA purification. […]
dialyzed and further purified using cation exchange using a buffer 25 mM Tris pH 8.0 and a gradient of […] in the same buffer over 25 column volumes. The product fractions were pooled, concentrated, and stored at –80 °C until further use.
3.4. Synthesis of symmetrical anhydrides
The carboxylic acid was dissolved in CH2Cl2 (300 mM) and dicyclohexylcarbodiimide (0.5 eqiv) was added in one portion. The reaction was stirred under N2 for 18 h. The suspension was filtered and concentrated to ~10% of the initial volume. The solution was placed at 4 °C for 1 h and filtered again.
The filtrate was concentrated to obtain the symmetrical anhydride which was used without further purification. Anhydrides can be stored at –20 °C for weeks.
3.5. Reaction of modified Ubl probes with E2s
Ubl probes (15 μM) were mixed with E2s (15 μM) in PBS. The mixture was incubated at 37 °C in a water bath for 0.5-3 h. The reaction was quenched by addition of 2x Laemmli buffer and boiled at 95 °C for 5 min. Samples were resolved by SDS-PAGE (8-16%, Bio-Rad) and visualized by […]
Coomassie staining. […]

The next assay concerns the target T1, LC3A (Homo sapiens, UniProt Q9H492).
T1 construct: His6-SUMO (pOPINS) (N, cleaved yes); made in house; host or cells: E. coli Rosetta-CodonPlus (DE3)-RIL
The assay can be described thus: Fluorescence polarization binding of fluorescein-modified LIR^ATG3 peptides to LC3A. The source says: (§1) Figure 2 Characterization of LIR^ATG3. a. Reaction scheme outlining competition assay used for b, c, and d. b. Coomassie Blue-stained SDS-PAGE analysis for reaction of 2 with ATG3 C1 in the presence of varying concentrations of linear LIR^ATG3 peptide 5 as outlined in a. c. Coomassie Blue-stained SDS-PAGE analysis for reaction of 2 with ATG3 C1 in the presence of varying concentrations of cyclized LIR^ATG3 peptide 6 as outlined in a. d. Quantification of competition assays shown in b and c. The amount of GABARAP–ATG3 C1 complex was quantified by gel-densitometry and normalized to the reaction without peptide for each gel. […] Data are presented as average values ± s.d. e. Fluorescence polarization binding-data of fluorescein-modified LIR^ATG3 peptide binding to GABARAP. Either linear, cyclized, or truncated (103–111) LIR^ATG3 peptide was used. […] Fluorescence polarization data of fluorescein-modified LIR^ATG3 peptide binding to LC3A. […]
(§2) 3.13.Fluorescence polarization measurement
(§3) Fluorescent peptides were dissolved in DMSO and PBS. The concentration was determined by UV - absorption and extinction coefficient at 280 nm. […] Protein concentration was determined using UV-absorption and extinction coefficient at 280 nm. […]
(§4) 0.047 μM. […] Fluorescence polarization and intensity was measured on a Victor Nivo Plate Reader (Perkin Elmer). […]
Background: Polarisation of emitted light reports the rotation of a fluorescent probe.

A further assay addresses T2, GABARAP (Homo sapiens, UniProt O95166).
T2 construct: His6-SUMO (pOPINS) (N, cleaved yes); made in house; host or cells: E. coli Rosetta-CodonPlus (DE3)-RIL
The assay can be described thus: Fluorescence polarization binding of fluorescein-modified LIR^ATG3 peptides to GABARAP. The following applies: response letter; truncated LIR peptide (103–111).
Text: as §1, §2, §3, §4

Where no end group is shown, it is not given here. Where only a bound is given, the exact number is not on record here.

T2 sequence (O95166 whole entry): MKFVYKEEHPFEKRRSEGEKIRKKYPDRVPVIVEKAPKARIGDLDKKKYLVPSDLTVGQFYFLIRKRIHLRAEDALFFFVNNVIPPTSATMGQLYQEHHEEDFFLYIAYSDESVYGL

For “GABARAP(ΔG116)–NHNH α-chloroacetyl [compound 1]”, the “LIR dependence of ATG3 wild-type modification” value in the assay with ATG3 [1] is on record as “dependent on LIRATG3”. Also, the “LIR dependence of cross-linking with ATG3” value in the assay with ATG3 [2] (ATG3 with or without LIR) is recorded as “strictly dependent on LIR^ATG3”. In addition, in the assay on ATG3 [2] (probe 1 15 μM, ATG3 C1 or C0 15 μM, 1 h (Figure S2)), the “Cross-linking with ATG3 C1 vs C0” value was “Cross-linking was only observed for ATG3 C1”.
As to “LC3A(ΔG120)–NHNH methyl fumarate [compound 4]”, in the assay with ATG3 [2] (probe 15 μM, SDS-PAGE), the “Reaction with ATG3 C0” value is on record as “no reaction”, the “Reaction with ATG3 C1” value is on record as “efficient reaction” and the “Reaction with ATG3 ΔLIR” value is listed as “no reaction”.
Regarding “LC3A(ΔG120)–NHNH α-chloroacetyl [compound 3]”, in the assay on ATG3 [2] (probe 15 μM, SDS-PAGE), the “Reaction with ATG3 C0” value is “no reaction”, the “Reaction with ATG3 C1” value was “efficient reaction” and the “Reaction with ATG3 ΔLIR” value is given as “no reaction”.
Take “Ub(ΔGG)–NHNH methyl fumarate [Ub(ΔGG) methyl fumarate probe, reference compound]”: the “Reaction with ATG3 wt” value with ATG3 [2] (probe 15 μM, ATG3 15 μM, 1 h, SDS-PAGE, Coomassie Blue) is reported as “did not react”.
“truncated LIR^ATG3: fluorescein-modified truncated (103–111) LIR^ATG3 peptide, amino acids G103-Y111 including the core LIR motif (GDGGWVDTY; also: fluorescein, position not given here)”: the “fold weaker binding of truncated peptide than linear peptide” value with LC3A (GABARAP or LC3A not stated, truncated (103–111) vs linear) is 6 fold. Also, the “fold weaker affinity of truncated peptide, LC3A” value with LC3A (response letter, truncated LIR peptide lacking amino acids 104-95) is > 8 fold. Further, the “fold weaker affinity of truncated peptide, GABARAP” value with GABARAP is > 8 fold.
